Source: US20230333087A1, “METHODS FOR MONITORING PATIENT RESPONSE TO TREATMENT OF RETINAL OXIDATIVE DISEASES” (BioJiva LLC, priority 2022, published 2023)

Experiments:
LPO and cell death = details: FRDA, INAD, PSP; cited from earlier work
[1] = clinical trials; cited from earlier work
[2] = tested on: 4-HNE and 4-HHE formation; details: present in lipid bilayers; cited from earlier work
[3] = tested on: iron-induced retinal autofluorescence and degeneration; assay: Iron-induced retinal autofluorescence and degeneration, cSLO and OCT imaging 1 week after intravitreal iron; type: in vivo, C57BL/6J mice; details: DHA diet versus previous study with regular chow without DHA (LabDiet 5001)
Description: To evaluate the protective effect of 0.25% D-DHA diet, confocal scanning laser ophthalmoscopy (cSLO) and optical coherence tomography (OCT) were employed for in vivo imaging at 1 week after injections. For the cSLO imaging, both blue autofluorescence (BAF) and near-infra autofluorescence (IRAF) were performed.
Adult male wild-type C57BL/6J mice (Stock No.000664, Jackson Labs, Bar Harbor, ME, USA) were housed in standard conditions under cyclic light (12 h:12 h light-dark cycle). Mice had ad libitum access to water and food. Beginning at 2 mo of age, mice were placed on the AIN93G diet described above, supplemented with 0.25% D-DHA or DHA (control diet) for 1 week, 2 weeks, 3 weeks, or 4 weeks prior to the intravitreal injection. Mice were given an intravitreal injection of 1 µl 0.5 mM ferric ammonium citrate diluted in 0.9% NaCl (saline) (MP Biomedicals LLC, Santa Ana, CA) or
1 µl of saline as control. Intravitreal injections were performed as previously described ^54. Mice were continued on respective diet until their final evaluation. All housing and procedures were performed according to the NIH Guide for the Care and Use of Experimental Animals and approved by the University of Pennsylvania Animal Care and Use Committee.
Mice were given general anesthesia and placed on a platform. Pupils were dilated with 1% tropicamide saline solution (Akorn, Inc., Lake Forest, IL). Optical coherence tomography (OCT) imaging was performed for visualization of the retinal structure by using a Bioptigen
Envisu (R2200, Bioptigen Inc., Durham, NC, USA) coupled to a broadband LED light source (T870-HP, Superlum Diodes, Ltd, Ireland). Confocal scanning laser ophthalmoscopy (cSLO) (Spectralis HRA, Heidelberg Engineering, Franklin, MA, USA) was used for visualization of retinal AF using BluePeak™ or simply blue AF (488 nm excitation) and near-infrared AF (787 nm excitation) imaging modes.

[4] = tested on: human RPE cell line ARPE-19; details: high-intensity light exposure; cited from earlier work

[2H]C([2H])(/C=C\CCCCC)/C=C\CCCCCCCC(=O)OCC [RT001, 11,11-D2-Lin]
LPO and cell death (LPO and cell death): inhibited LPO and rescued cell death | safety and tolerability [1]: notable safety and tolerability

[2H]C([2H])(/C=C\CCCCC)/C=C\CCCCCCCC(=O)O [D2-linoleic acid]
4-HNE and 4-HHE formation [2]: downregulated not just 4-HNE but also 4-HHE formation

docosahexaenoic acid [DHA, reference compound]
severity of IVT iron induced damage [3]: less severe | oxidative stress and LPO [4]: increased oxidative stress and LPO
